pIC50: −log10 of the molar value. Structures can show the parent of a compound that is named as a salt.
Key:
Design in all cases: species or system Male Wistar rats
5HT2-Receptor = target: T1, 5HT2-Receptor (Rattus norvegicus, UniProt P14842); assay: TEST 3: In Vitro Inhibition of 5HT2-Receptor Binding (3H-Ketanserine, rat frontal cortex); settings: 3H-Ketanserine (0.4 nM), rat frontal cortex membranes, 15 min. at 37° C.; read-out: TEST 3 IC50 (concentration inhibiting specific binding by 50%)
T1 construct: Male Wistar rats, 150-200 g are decapitated; Frontal cortex is removed quickly; from tissue; host or cells: rat frontal cortex membrane fragments
Method: TEST 3: In Vitro Inhibition of 5HT2 -Receptor Binding
(§1) Radioactive-labelled ligand ^3 H-Ketanserine is incubated with isolated cell membrane fragments at 37° C. for a given period of time. Following completed incubation, the incubate is filtered through GF/B filters, which are rinsed following filtration to remove unspecifically adhered radioactivity. As opposed to low-molecular compounds, membrane fragments are not rinsed through the filters, the radioactivity bound to the filters indicates the amount of ligand bound specifically as well as nonspecifically to the membranes.
The preparation is made in ice bath. Polytron kinematica is rinsed with milli-Q--H2 O before and after use. Male Wistar rats, 150-200 g are decapitated. Frontal cortex is removed quickly and weighed (approx. 200 mg). Frontal cortex is added to centrifuging vial containing 10 ml ice-cold D2 buffer. Homogenization applying polytron kinematica (homogenizer) setting 6 for 20 sec. The homogenizer is rinsed with 10 ml D2 buffer in another centrifuging vial. The 10 ml rinsing buffer is added to the tissue vial. Centrifuged at 18,000 rpm for 10 min. at 4° C. Final pellet is transferred to 125×vol. of same buffer. (Ex 200 mg in 25 ml D2 buffer). Can be stored for approx. 30 min. at 0° C.
25/μl ^3 H-Ketanserine (0.4 nM)
25/μl test substance/H2 O/blind cyproheptadine (2/μM)
Incubation for 15 min. at 37° C. […]

DOPAMINE D1 Receptor = target: T2, DOPAMINE D1 Receptor (Rattus norvegicus, UniProt P18901); assay: TEST 2: In Vitro Inhibition of DOPAMINE D1 Receptor Binding (3H-SCH 23390, rat striatum); settings: 3H-SCH 23390 (0.2 nM), rat striatum membranes, 60 min. at 30° C.; read-out: TEST 2 IC50 (concentration inhibiting specific binding by 50%)
T2 construct: Male Wistar rats, 150-200 g are decapitated; Striatum is removed quickly; from tissue; host or cells: rat striatum membrane fragments
Method: TEST 2: In Vitro Inhibition of DOPAMINE D1 Receptor Binding
Radioactive-labelled ligand ^3 H-SCH 23390 is incubated with isolated cell-membrane fragments in incubation buffer at 30° C. for a given period of time. Following completed incubation, the incubate is filtered through GF/B filters, which are rinsed following filtration to remove unspecifically adhered radioactivity. As opposed to low-molecular compounds, membrane fragments are not rinsed through the filters, the radioactivity bound to the filters indicates the amount of ligand bound specifically as well as nonspecifically to the membranes.
Male Wistar rats, 150-200 g are decapitated. Striatum is removed quickly, weighed (approx. 50 mg) and carefully homogenized in 100×vol. of buffer I applying glass/teflon homogenizer 10 up/down strokes. Ex.: 50 mg striatum is homogenized in […] buffer I. The homogenate is centrifuged at 18,000 rpm for 20 min. at 4° C., and the supernate is decanted. This step is performed three times, and each time the pellet is resuspended and homogenized in 100×vol. of buffer I. Following the third centrifugation, the pellet is suspended in 100×vol. of resuspension buffer and homogenized. The tissue is now ready for use. The tissue is stable at 0° C. for 8 hours.
200 μl test substance/H2 O/blind (cis-flupentixol 2 μM)
Incubation for 60 min. at 30° C.
10 ml of ice-cold 0.9% NaCl is added to the tubes. […]

DOPAMINE D2 Receptor = target: T3, DOPAMINE D2 Receptor (Rattus norvegicus, UniProt P61169); assay: TEST 1: In Vitro Inhibition of DOPAMINE D2 Receptor Binding (3H-Spiroperidol, rat striatum); settings: 3H-Spiroperidol (0.05 nM), rat striatum membranes, 20 min. at 37° C.; read-out: TEST 1 IC50 (concentration inhibiting specific binding by 50%)
T3 construct: Male Wistar rats, 150-200 g are decapitated, striatum is removed quickly and weighed; from tissue; host or cells: rat striatum membrane fragments
Method: TEST 1: In Vitro Inhibition of DOPAMINE D2 Receptor Binding
as §1, with “^3 H-Spiroperidol” for “^3 H-Ketanserine”, “isolated cell-membrane” for “isolated cell membrane”, “GF/B filters” for “GF/B filters,”, “filters is indicative of” for “filters indicates”
The procedure is performed in ice bath. Polytron kinematica is rinsed with milli-Q--H2 O before and after use. Male Wistar rats, 150-200 g are decapitated, striatum is removed quickly and weighed (approx. 50 mg). Striatum is transferred to a centrifuging vial containing 10 ml ice-cold D2 buffer. Homogenization is performed applying polytron kinematica (homogenizer) setting 6 for 20 sec. The homogenizer is rinsed with 10 ml D2 buffer in another centrifuging vial. The 10 ml rinsing buffer is added to the tissue vial. Centrifugation at 18,000 rpm for 10 min. at 4° C. Final pellet is transferred to 1,000×vol. of same buffer. (Ex. 50 mg striatum in 50 ml D2 buffer). Can be stored at 0° C. for at least 4 hours. Note that the tissue must be monogeneous (uniform) before use. If not, brief homogenization is performed. […]

T2 sequence (P18901 whole entry, the tested form may be a part): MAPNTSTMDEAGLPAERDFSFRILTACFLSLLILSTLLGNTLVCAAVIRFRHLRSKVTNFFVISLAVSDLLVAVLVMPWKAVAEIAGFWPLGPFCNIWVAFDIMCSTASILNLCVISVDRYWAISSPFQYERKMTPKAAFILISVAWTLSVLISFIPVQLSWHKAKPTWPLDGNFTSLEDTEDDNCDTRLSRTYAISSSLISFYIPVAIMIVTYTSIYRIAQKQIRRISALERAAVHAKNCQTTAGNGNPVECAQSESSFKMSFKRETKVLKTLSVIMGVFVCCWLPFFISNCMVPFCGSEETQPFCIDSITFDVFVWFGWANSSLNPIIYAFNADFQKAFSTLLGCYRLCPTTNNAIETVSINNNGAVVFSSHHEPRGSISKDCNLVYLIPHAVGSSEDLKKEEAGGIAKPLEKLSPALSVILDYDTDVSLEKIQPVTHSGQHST
T1 sequence (P14842 whole entry, the tested form may be a part): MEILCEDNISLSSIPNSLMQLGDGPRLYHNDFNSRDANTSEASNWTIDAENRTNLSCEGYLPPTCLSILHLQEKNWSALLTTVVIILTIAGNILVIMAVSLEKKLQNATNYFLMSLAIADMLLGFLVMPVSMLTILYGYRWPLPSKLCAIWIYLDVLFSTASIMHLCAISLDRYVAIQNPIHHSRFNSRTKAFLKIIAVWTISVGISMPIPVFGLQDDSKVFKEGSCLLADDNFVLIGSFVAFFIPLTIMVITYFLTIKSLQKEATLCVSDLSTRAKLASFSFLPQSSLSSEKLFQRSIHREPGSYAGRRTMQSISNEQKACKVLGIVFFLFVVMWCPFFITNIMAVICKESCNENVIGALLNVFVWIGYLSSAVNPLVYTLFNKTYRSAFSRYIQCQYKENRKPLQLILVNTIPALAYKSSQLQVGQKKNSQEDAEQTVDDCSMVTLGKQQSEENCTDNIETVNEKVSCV
T3 sequence (P61169 whole entry, the tested form may be a part): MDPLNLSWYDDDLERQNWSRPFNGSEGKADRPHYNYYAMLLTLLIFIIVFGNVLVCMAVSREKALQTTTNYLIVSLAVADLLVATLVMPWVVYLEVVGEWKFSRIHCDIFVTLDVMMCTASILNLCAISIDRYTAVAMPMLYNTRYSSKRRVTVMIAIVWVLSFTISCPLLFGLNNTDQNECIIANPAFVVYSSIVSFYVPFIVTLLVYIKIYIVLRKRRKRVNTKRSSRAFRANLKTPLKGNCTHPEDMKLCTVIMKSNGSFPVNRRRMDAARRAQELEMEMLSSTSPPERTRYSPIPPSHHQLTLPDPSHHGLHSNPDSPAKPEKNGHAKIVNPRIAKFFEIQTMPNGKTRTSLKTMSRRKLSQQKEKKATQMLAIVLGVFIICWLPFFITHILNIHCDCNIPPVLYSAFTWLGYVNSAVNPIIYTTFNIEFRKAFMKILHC

## CN(C(=O)OCCCN1CCC(c2noc3cc(F)ccc23)CC1)c1ccccc1 [Example 3, 4-(6-Fluoro-1,2-benzisoxazol-3-yl) -1-(3-(N-methyl-N-phenylcarbamoyloxy)propyl)piperidine, oxalate]
5HT2-Receptor
  pIC50: 8.16
DOPAMINE D1 Receptor
  pIC50: 7.37
DOPAMINE D2 Receptor
  pIC50: 8.05

## CCN(C(=O)OCCCN1CCC(c2noc3cc(F)ccc23)CC1)c1ccc2c(c1)OCO2 [Example 2, 4-(6-Fluoro-1,2-benzisoxazol-3-yl)-1-(3-(N-ethyl-N-(3,4-methylenedioxyphenyl)carbamoyloxy)propylpiperidine, oxalate]
5HT2-Receptor
  pIC50: 8.17
DOPAMINE D1 Receptor
  pIC50: 7.52
DOPAMINE D2 Receptor
  pIC50: 7.74

Reference: US5478845A, “Piperidine derivatives” (Novo Nordisk A/S, priority 1993, dated 1995)
